Patent publication US11912693B2, “Compounds for modulating S1P1 activity and methods of using the same” (TREVENA, INC., priority 2017, dated 2024)

How the values were obtained:
[1] = target: T1, human sphingosine-1-phosphate receptor 1 (S1P1) (Homo sapiens (Human), UniProt P21453); test: β-Arrestin2 recruitment assay (PathHunter), S1P1 CHO-K1 cells; format: cell-based; details: for Emax: CHO-K1, efficacy (SPAN) normalized to fingolimod, read-out: hS1P1 B-arrestin2 SPAN; for hS1P1 B-arrestin2 pEC50: β-arrestin2 recruitment, S1P1 CHO-K1 cells
Procedure, shortened: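 Enzyme-fragment complementation read-out: agonist-driven β-arrestin2 binding to ProLink-tagged human S1P1 in stable CHO-K1 cells restores β-galactosidase, measured 1 h at room temperature after a 60 min 37° C. compound incubation. Potency as pEC50, efficacy relative to fingolimod (SPAN).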
Target sequence in this assay (P21453 whole entry, looked up, the tested form may be a part): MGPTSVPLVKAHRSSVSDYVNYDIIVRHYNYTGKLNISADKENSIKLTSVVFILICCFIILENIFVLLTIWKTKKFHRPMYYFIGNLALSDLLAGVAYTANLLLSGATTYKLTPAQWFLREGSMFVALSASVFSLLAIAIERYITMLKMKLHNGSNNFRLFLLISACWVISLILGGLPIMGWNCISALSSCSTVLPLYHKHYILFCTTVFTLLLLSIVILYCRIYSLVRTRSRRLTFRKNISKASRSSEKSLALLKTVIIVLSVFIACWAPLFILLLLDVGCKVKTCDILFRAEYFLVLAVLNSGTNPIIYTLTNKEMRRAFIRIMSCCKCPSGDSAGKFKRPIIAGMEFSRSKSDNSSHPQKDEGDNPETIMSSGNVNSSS
Target sequence in this assay (P32121 whole entry partner, looked up, the tested form may be a part): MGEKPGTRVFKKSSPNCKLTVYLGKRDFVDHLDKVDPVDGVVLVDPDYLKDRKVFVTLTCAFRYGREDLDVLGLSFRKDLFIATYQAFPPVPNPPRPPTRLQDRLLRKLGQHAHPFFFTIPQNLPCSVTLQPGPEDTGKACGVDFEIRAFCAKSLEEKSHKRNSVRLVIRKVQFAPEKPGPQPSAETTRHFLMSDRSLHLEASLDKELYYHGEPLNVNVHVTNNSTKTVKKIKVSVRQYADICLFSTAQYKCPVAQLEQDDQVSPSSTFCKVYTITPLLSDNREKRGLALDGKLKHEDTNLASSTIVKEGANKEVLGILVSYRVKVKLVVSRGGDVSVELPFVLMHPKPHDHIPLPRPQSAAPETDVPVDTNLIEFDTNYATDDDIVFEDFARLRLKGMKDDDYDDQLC

[2] = target: T1, human sphingosine-1-phosphate receptor 1 (S1P1); test: Inhibition of cAMP production (HTRF cAMP HiRange), S1P1 CHO-K1 cells; format: cell-based; details: for Emax: CHO-K1, efficacy (SPAN) normalized to fingolimod, read-out: hS1P1 cAMP SPAN; for hS1P1 cAMP pEC50: inhibition of cAMP production, S1P1 CHO-K1 cells
Procedure, shortened: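 CHO-K1 cells stably co-expressing human S1P1 (C-terminal Prolink tag) and EA-β-arrestin2 were grown in AssayComplete Media 6 at 37° C. and 5% CO2, plated, and incubated overnight. Agonist-driven inhibition of intracellular cAMP was read by TR-FRET with the HTRF cAMP HiRange kit on a PheraStar reader. Potency is pEC50, and efficacy (SPAN) is normalized to fingolimod.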
Target sequence in this assay (P21453 whole entry, looked up, the tested form may be a part): as the sequence (P21453 whole entry, looked up, the tested form may be a part) above

Row | Emax [1] [%] | hS1P1 B-arrestin2 pEC50 [1] | Emax [2] [%] | hS1P1 cAMP pEC50 [2] | SMILES
1 | < 75 | <5 | < 75 | <6.5 | CCC1(CC)CC(=O)c2cc(-c3nc(-c4ccc(OC)nc4)no3)ccc2O1 [Compound 301, 2,2-diethyl-6-[3-(6-methoxy-3-pyridyl)-1,2,4-oxadiazol-5-yl]chroman-4-one]
2 | > 75 | <5 | > 75 | <6.5 | CCC1(CC)CC(=O)c2cc(-c3nc(-c4cnccc4OC)no3)ccc2O1 [Compound 303, 2,2-diethyl-6-(3-(4-methoxypyridin-3-yl)-1,2,4-oxadiazol-5-yl)chroman-4-one]
3 | > 75 | >5 | > 75 | >6.5 | CCC1(CC)CC(=O)c2cc(-c3nc(-c4cncc(O)c4)no3)ccc2O1 [Compound 310, 2,2-diethyl-6-[3-(5-hydroxy-3-pyridyl)-1,2,4-oxadiazol-5-yl]chroman-4-one]
4 | – | <5 | – | <6.5 | CCC1(CC)CC(=O)c2cc(-c3nc(-c4cncc(OC)c4)no3)ccc2O1 [Compound 311, 2,2-diethyl-6-(3-(5-methoxypyridin-3-yl)-1,2,4-oxadiazol-5-yl)chroman-4-one]
5 | > 75 | <5 | > 75 | <6.5 | CCC1(CC)CC(=O)c2cc(-c3nc(-c4ccncc4O)no3)ccc2O1 [Compound 312, 2,2-diethyl-6-(3-(3-hydroxypyridin-4-yl)-1,2,4-oxadiazol-5-yl)chroman-4-one]
6 | < 75 | <5 | < 75 | <6.5 | CCC1(CC)CC(=O)c2cc(-c3nc(-c4ccnc(C(F)(F)F)c4)no3)ccc2O1 [Compound 314, 2,2-diethyl-6-(3-(2-(trifluoromethyl)pyridin-4-yl)-1,2,4-oxadiazol-5-yl)chroman-4-one]
7 | < 75 | >5 | > 75 | >6.5 | CCC1(CC)CC(=O)c2cc(-c3nc(-c4ccnc(C)c4)no3)ccc2O1 [Compound 315, 2,2-diethyl-6-(3-(2-methylpyridin-4-yl)-1,2,4-oxadiazol-5-yl)chroman-4-one]

Continued, compound first:

Row | SMILES | Emax [1] [%] | hS1P1 B-arrestin2 pEC50 [1] | Emax [2] [%] | hS1P1 cAMP pEC50 [2]
8 | CC1(C)CC(=O)c2cc(-c3nc(-c4ccncc4)no3)ccc2O1 [Compound 291, 2,2-dimethyl-6-[3-(pyridin-4-yl)-1,2,4-oxadiazol-5-yl]-3,4-dihydro-2H-1-benzopyran-4-one] | < 75 | <5 | < 75 | <6.5
9 | c1ccc(-c2noc(-c3ccc4c(c3)nnn4C3CCCCC3)n2)cc1 [Compound 292, 1-cyclohexyl-5-(3-phenyl-1,2,4-oxadiazol-5-yl)-1H-1,2,3-benzotriazole] | < 75 | <5 | < 75 | <6.5
10 | CC(C)n1nnc2cc(-c3nc(-c4ccccc4)co3)ccc21 [Compound 294, 5-(4-phenyl-1,3-oxazol-2-yl)-1-(propan-2-yl)-1H-1,2,3-benzotriazole] | > 75 | <5 | < 75 | <6.5
11 | c1cc(-c2noc(-c3ccc4c(c3)nnn4C3CC3)n2)ccn1 [Compound 295, 1-cyclopropyl-5-[3-(pyridin-4-yl)-1,2,4-oxadiazol-5-yl]-1H-1,2,3-benzotriazole] | < 75 | <5 | > 75 | <6.5
12 | CC(C)n1nnc2cc(-c3nc(-c4ccc(OCc5ccccc5)c(C(F)(F)F)c4)no3)ccc21 [Compound 296, 5-{3-[4-(benzyloxy)-3-(trifluoromethyl)phenyl]-1,2,4-oxadiazol-5-yl}-1-(propan-2-yl)-1H-1,2,3-benzotriazole] | < 75 | <5 | < 75 | <6.5
13 | CC(C)n1nnc2cc(-c3nc4c(o3)-c3ccccc3CC4)ccc21 [Compound 297, 5-{4H,5H-naphtho[2,1-d][1,3]oxazol-2-yl}-1-(propan-2-yl)-1H-1,2,3-benzotriazole] | > 75 | <5 | > 75 | <6.5
14 | O=C1CC2(CCCC2)Oc2ccc(-c3nc(-c4cccnc4)no3)cc21 [Compound 298, 6-[3-(pyridin-3-yl)-1,2,4-oxadiazol-5-yl]-3,4-dihydrospiro[1-benzopyran-2,1′-cyclopentane]-4-one] | – | >5 | – | <6.5
15 | COc1cccc(-c2nc(-c3ccc4c(c3)nnn4C(C)C)no2)c1 [Compound 299, 3-(1-isopropylbenzotriazol-5-yl)-5-(3-methoxyphenyl)-1,2,4-oxadiazole] | > 75 | <5 | < 75 | <6.5
16 | CCC1(CC)CC(=O)c2cc(-c3nnc(-c4ccccc4OC)o3)ccc2O1 [Compound 300, 2,2-diethyl-6-(5-(2-methoxyphenyl)-1,3,4-oxadiazol-2-yl)chroman-4-one] | – | <5 | – | <6.5
17 | N#Cc1cc(-c2nc(-c3ccc4c(c3)CCC(=O)N4)no2)ccc1NCC1CC1 [Compound 302, 2-((cyclopropylmethyl)amino)-5-(3-(2-oxo-1,2,3,4-tetrahydroquinolin-6-yl)-1,2,4-oxadiazol-5-yl)benzonitrile] | > 75 | >5 | > 75 | >6.5
18 | CC(C)n1nnc2cc(-c3noc(-c4ccccc4F)n3)ccc21 [Compound 307, 5-(2-fluorophenyl)-3-(1-isopropyl-1H-benzo[d][1,2,3]triazol-5-yl)-1,2,4-oxadiazole] | > 75 | >5 | > 75 | >6.5
19 | Cc1ccccc1-c1noc(-c2ccc3nnn(C(C)C)c3c2)n1 [Compound 308, 6-[3-(2-methylphenyl)-1,2,4-oxadiazol-5-yl]-1-(propan-2-yl)-1H-1,2,3-benzotriazole] | < 75 | <5 | < 75 | <6.5
20 | CCC1(CC)CC(=O)c2cc(-c3nc(-c4cccnc4)ns3)ccc2O1 [Compound 309, 2,2-diethyl-6-(3-(pyridin-3-yl)-1,2,4-thiadiazol-5-yl)chroman-4-one] | > 75 | <5 | > 75 | <6.5
21 | CCC1(CC)CC(=O)c2cc(-c3nc(-c4ccncc4C(F)(F)F)no3)ccc2O1 [Compound 313, 2,2-diethyl-6-(3-(3-(trifluoromethyl)pyridin-4-yl)-1,2,4-oxadiazol-5-yl)chroman-4-one] | > 75 | <5 | > 75 | >6.5
22 | CC(=O)Nc1ccc(-c2noc(-c3ccc(NC(C)C)c(C#N)c3)n2)cc1 [Compound 316, N-(4-(5-(3-cyano-4-(isopropylamino)phenyl)-1,2,4-oxadiazol-3-yl)phenyl)acetamide] | < 75 | <5 | > 75 | >6.5
